Tested on: caspase-3/7 in MEFs
Assay: Caspase-3/7 activation assay
Type: cell-based, mouse
Experimental: Caspase-3/7 activation assay. Cells (5×10^3 cells/well) were seeded in a 96-well white plate and treated with MASM7, MFI8. Caspase 3/7 activation was measured after 6 hr by addition of the Caspase-Glo 3/7 reagent according to the manufacturer's protocol (Promega). Luminescence was detected by a F200 PRO microplate reader (TECAN). Caspase assays were performed in at least triplicate and the data normalized to vehicle-treated control wells. Dilutions of MASM7 or MFI8 were performed using a TECAN D300e Digital Dispenser from 10 mM stocks.

In the case of Cc1cccc(NC(C)c2cc(Cl)ccc2O)c1C (stereo not drawn) [MFI8], the caspase-3/7 activity (6 hr) is reported as “concentration-responsively increased caspase-3/7 activity”, the “caspase 3/7 activity” value (deletion of APAF-1) is reported as “detrimental for the capacity of MFI8 to increase caspase 3/7 activity” and the caspase-3/7 activity (deletion of MFN1/MFN2) is reported as “impaired the capacity of MFI8 to increase caspase-3/7 activity”.
